Where a name gives a salt, the structure may show the parent alone. Read-outs that look alike come from different tables or passages of the source.
Experiments:
mouse TLR7 = target: T1, mouse TLR7 (Mus musculus, UniProt P58681); assay: Inhibition of TLR7 activation in mouse TLR7-expressing NF-κB-GFP reporter Ba/F3 cells; format: cell-based; details: for TLR7 activation inhibitory activity, comparison in words: from IC50 of Table 3 / Table 5
T1 construct: expressed in transfected cells; host or cells: Ba/F3 cells (provided by Prof. Kensuke Miyake, University of Tokyo)
T1 sequence (P58681 27-1050): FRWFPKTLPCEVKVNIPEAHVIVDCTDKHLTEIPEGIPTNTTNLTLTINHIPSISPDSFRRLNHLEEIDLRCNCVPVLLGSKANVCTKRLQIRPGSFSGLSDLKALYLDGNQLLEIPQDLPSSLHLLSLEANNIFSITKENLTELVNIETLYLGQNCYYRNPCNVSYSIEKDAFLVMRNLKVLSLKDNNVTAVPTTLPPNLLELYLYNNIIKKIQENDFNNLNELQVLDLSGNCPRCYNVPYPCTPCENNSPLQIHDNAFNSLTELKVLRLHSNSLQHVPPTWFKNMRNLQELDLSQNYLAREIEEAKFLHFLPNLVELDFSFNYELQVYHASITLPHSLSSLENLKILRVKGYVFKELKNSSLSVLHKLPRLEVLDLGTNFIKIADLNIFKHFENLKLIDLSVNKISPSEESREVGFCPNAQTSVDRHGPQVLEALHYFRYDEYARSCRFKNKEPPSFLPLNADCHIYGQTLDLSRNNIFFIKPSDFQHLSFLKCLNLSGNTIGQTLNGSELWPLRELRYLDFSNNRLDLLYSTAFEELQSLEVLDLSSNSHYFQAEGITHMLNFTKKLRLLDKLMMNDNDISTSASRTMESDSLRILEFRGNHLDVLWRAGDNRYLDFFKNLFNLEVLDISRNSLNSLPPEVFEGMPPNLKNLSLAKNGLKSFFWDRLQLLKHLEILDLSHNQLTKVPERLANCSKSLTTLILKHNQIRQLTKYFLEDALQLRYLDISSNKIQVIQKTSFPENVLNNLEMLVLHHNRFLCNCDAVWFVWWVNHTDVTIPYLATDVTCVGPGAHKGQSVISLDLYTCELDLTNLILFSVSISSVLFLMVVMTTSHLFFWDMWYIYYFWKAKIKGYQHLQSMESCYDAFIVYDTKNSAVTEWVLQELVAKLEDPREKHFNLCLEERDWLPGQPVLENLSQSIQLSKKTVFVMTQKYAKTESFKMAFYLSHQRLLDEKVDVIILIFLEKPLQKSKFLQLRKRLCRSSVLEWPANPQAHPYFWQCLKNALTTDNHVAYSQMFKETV
Source text: Mouse TLR7-expressing reporter cells (Ba/F3 cells) were used to evaluate inhibition of TLR7 activation in each derivative and CB-7. These cells were provided by Professor Kensuke Miyake (Department of Infection Genetics, Institute of Medical Science, University of Tokyo). These cells have been transfected with a reporter gene that connects GFP gene downstream of the promoter region of NF-κB. Therefore, the expression of GFP is enhanced by the addition of a ligand for TLR7 expressed by the cells. The fluorescence intensity of GFP was attenuated by the addition of each derivative, and the inhibition of TLR7 activation by each derivative was evaluated as an indicator.
Loxoribine (Alexis Biochemicals) was used as the ligand for mouse TLR7. Gardiquimod (Invivogen) was used as the ligand for human TLR7.
Ba/F3 cells cultured in RPMI 1640 medium containing 10% (v/v) fetal calf serum (FCS), 50 U/mL penicillin, 50 μg/mL streptomycin, 2 mM L-glutamine, […] 2-mercaptoethanol, 1 ng/mL interleukin-3 were aliquoted into 96-well plates so that the number of cells per well was 1.0×10^5 cells/100 μL. 50 μL of each derivative or CB-7, prepared to final concentrations of 1, 5, 10, 25, 50, and 100 µM, was added to each well. 96-well plates were incubated at 37° C. for 30 minutes in the presence of 5% CO2. Next, 250 μg/mL Roxoribin was added to each well and incubated for 18 hours. At the end of incubation, cells were washed with PBS (FACS buffer) containing 2.5% (v/v) FCS and suspended in 200 μL of FACS buffer containing 25 μg/mL […] for each cell. GFP fluorescence intensities of the cells were analyzed by flow cytometry. Flow cytometry measurement was performed on a FACSCanto™ II (Becton Dickinson) and data were analyzed with FlowJo software (Tree Star). The MFI (%) upon stimulation with roxoribin in the presence of […] derivatives or CB-7 was calculated using the MFI upon stimulation with roxoribin alone as 100%, and then IC50 (chemical compound concentration that inhibits activity by 50%) was calculated by logistic regression analysis.
The evaluation of the TLR7 activation inhibition by B2-24-4-5A·HCOOH was performed by the method described in Example 2. CB-7 and B2-24-4·HCl were used as controls.

[1] = tested on: Cytochrome P450 (CYP), mouse liver microsomes; assay: Metabolic stability (CYP) using mouse liver microsomes, HPLC; format: in vitro ADME; details: for Number of peaks detected by HPLC: 0.1 mg/mL, 37° C., 30 minutes or 2 hours; for Drug metabolism mainly by CYPs compared to CB-7: words
Procedure: For CB-7, B2-24, and B2-5A, 10 mg/mL DMSO solution was used. Each chemical compound was diluted with acetonitrile to 0.1 mg/mL, which was used as the analytical standard. Mouse liver microsomal fractions were rapidly thawed in a warm bath at 37° C. and kept on ice. Reaction buffer containing CYP cofactor was prepared on ice and mixed with the microsomal fractions. The reaction solution was preincubated at 37° C. for 5 minutes, and then the test substance solution was added and mixed well by pipetting. The volume of the reaction solution was 200 μL and the final concentration of the test substance was 0.1 mg/mL. The reaction solution was incubated at 37° C. for 30 minutes or 2 hours, and the reaction was stopped by adding 3 times the volume of acetonitrile and vortexing. After the reaction was stopped, the samples were centrifuged, and each supernatant was separated and dried in an evaporator. 50 μL of 50% acetonitrile solution was added to each solidified sample, and each sample was re-dissolved by vortexing for 5 minutes. Each redissolved solution was centrifuged, and each supernatant was subjected to HPLC analysis using a HITACHI Lachrom ELITE (HITACHI) as a HPLC system and COSMOSIL 5C18-MS-II, 4.6 mmI.D.×150 mm (nacalai tesque Co.) as a column.
Metabolic stability analysis of CB-7 and B2-24-4-5A·HCOOH was performed by the method of Example 5.

[2] = Example 2, Ba/F3 reporter cells, loxoribine stimulation 18 hours, GFP MFI, read-out: IC50 of CB-7 derivatives with modified Areas a and b

IC50 (mouse TLR7; [2]) [nM] | SMILES | TLR7 activation inhibitory activity, comparison in words (mouse TLR7) | further results
> 10000 | C=C(C)[C@@H]1CCC(O)(CNS(C)(=O)=O)C[C@H]1c1ccc(OC)cc1 (stereo partly shown) [B2-3A] | – | –
> 10000 | C=C(C)[C@@H]1CC[C@](CC(=O)O)(C(=O)OC)C[C@H]1c1ccc(OCCCO)cc1 [B2-5A-7-1] | – | –
2430 | C=C(C)[C@@H]1CC[C@]2(COC(=O)C2)C[C@H]1c1ccc(OC)cc1 [B2-5A] | higher TLR7 activation inhibitory activity than CB-7 | Predicted metabolic modifications (CYP) ([1]; Example 3): +O; Number of peaks detected by HPLC ([1]; Example 3): 4; Drug metabolism mainly by CYPs compared to CB-7 [1]: improved drug metabolism mainly by CYPs compared to CB-7
> 100000 | C=C(C)[C@@H]1CC[C@@](COC)(CC(=O)O)C[C@H]1c1ccc(OC)cc1 [B2-5B] | – | –
9360 | C=C(C)[C@@H]1CC[C@@](CO)(CC(=O)N2CCOCC2)C[C@H]1c1ccc(OC)cc1 [B2-6-7] | – | –
> 100000 | C=C(C)[C@@H]1CC[C@@](CO)(CCN(C)C)C[C@H]1c1ccc(OC)cc1 [B2-6A] | – | –
> 100000 | C=C(C)[C@@H]1CC[C@@](CO)(CC(=O)N(C)C)C[C@H]1c1ccc(OC)cc1 [B2-6] | – | –
1660 | C=CC[C@]1(CO)CC[C@@H](C(=C)C)[C@H](c2ccc(OCCCO)cc2)C1 [B2-28] | higher TLR7 activation inhibitory activity than CB-7 | –
1740 | C=CC[C@]1(CO)CC[C@@H](C(=C)C)[C@H](c2ccc(OCC(C)CO)cc2)C1 (stereo partly shown) [B2-29] | higher TLR7 activation inhibitory activity than CB-7 | –

Continued, compound first:

SMILES | IC50 (mouse TLR7; [2]) [nM] | TLR7 activation inhibitory activity, comparison in words (mouse TLR7) | further results
C=C(C)[C@@H]1CCC(O)(CN(C)C)C[C@H]1c1ccc(OC)cc1 (stereo partly shown) [B2-2A] | > 100000 | – | –
C=C(C)[C@@H]1CC[C@]2(COC(=O)C2)C[C@H]1c1ccc2ccccc2c1 [B2-5A-1] | > 100000 | – | –
C=C(C)[C@@H]1CC[C@]2(COC(=O)C2)C[C@H]1c1ccc(COCCOC)cc1 [B2-5A-4] | 2570 | higher TLR7 activation inhibitory activity than CB-7 | –
C=C(C)[C@@H]1CC[C@]2(COC(=O)C2)C[C@H]1c1ccc(CN(CC)CC)cc1 [B2-5A-6] | 210 | higher TLR7 activation inhibitory activity than CB-7 | –
C=C(C)[C@@H]1CC[C@]2(COC(=O)C2)C[C@H]1c1ccc(OCCCO)cc1 [B2-5A-7] | 2500 | higher TLR7 activation inhibitory activity than CB-7 | –
C=C(C)[C@@H]1CC[C@]2(COC(=O)C2)C[C@H]1c1ccc(CN2CCCC2)cc1 [B2-5A-9] | 300 | higher TLR7 activation inhibitory activity than CB-7 | –
C=C[C@]1(CO)CC[C@@H](C(=C)C)[C@H](c2ccc(COCCOC)cc2)C1 [B2-13] | 910 | higher TLR7 activation inhibitory activity than CB-7 | –
C=C[C@]1(CO)CC[C@@H](C(=C)C)[C@H](c2ccc(-c3ccccc3)cc2)C1 [B2-18] | > 50000 | – | –
C=C[C@]1(CO)CC[C@@H](C(=C)C)[C@H](c2ccc3ccccc3c2)C1 [B2-19] | > 100000 | – | –
C=C[C@]1(CO)CC[C@@H](C(=C)C)[C@H](c2ccc(Oc3ccccc3)cc2)C1 [B2-21] | > 50000 | – | –
C=C[C@]1(CC)CC[C@@H](C(=C)C)[C@H](c2ccc(CN(CC)CC)cc2)C1 [B2-22] | 310 | higher TLR7 activation inhibitory activity than CB-7 | –
C=C[C@]1(CO)CC[C@@H](C(=C)C)[C@H](c2ccc(-c3ccc(OC)cc3)cc2)C1 [B2-23] | > 100000 | – | –
C=C[C@]1(CO)CC[C@@H](C(=C)C)[C@H](c2ccc(CN3CCC(F)(F)CC3)cc2)C1 [B2-24-1] | 1050 | higher TLR7 activation inhibitory activity than CB-7 | –
C=C[C@]1(CO)CC[C@@H](C(=C)C)[C@H](c2ccc(CN3CCOCC3)cc2)C1 [B2-24-2] | 710 | higher TLR7 activation inhibitory activity than CB-7 | –
C=C[C@]1(CO)CC[C@@H](C(=C)C)[C@H](c2ccc(CN3CC(F)(F)C3)cc2)C1 [B2-24-3] | 1260 | higher TLR7 activation inhibitory activity than CB-7 | –
C=C[C@]1(CO)CC[C@@H](C(=C)C)[C@H](c2ccc(CN3CCNCC3)cc2)C1 [B2-24-4•HCl] | 87 | – | IC50 (mouse TLR7; Example 5, Table 5, method of Example 2, read-out: IC50): 167 nM
C=C[C@]1(CO)CC[C@@H](C(=C)C)[C@H](c2ccc(CN3CCCC3)cc2)C1 [B2-24] | 440 | higher TLR7 activation inhibitory activity than CB-7 | Number of peaks detected by HPLC ([1]; Example 3): 4; Drug metabolism mainly by CYPs compared to CB-7 [1]: improved drug metabolism mainly by CYPs compared to CB-7
C=C[C@]1(CO)CC[C@@H](C(=C)C)[C@H](c2ccc(COCCCO)cc2)C1 [B2-26] | 1260 | higher TLR7 activation inhibitory activity than CB-7 | –
C=C[C@]1(C(=O)OC)CC[C@@H](C(=C)C)[C@H](c2ccc(O)cc2)C1 [B2-27] | > 100000 | – | –
C=C(C)[C@@H]1CCC(=O)C[C@H]1c1ccc(OC)cc1 [I-7(Intermediate)] | > 100000 | – | –

From patent US12410157B2, “Compound useful as toll-like receptor 7 activation inhibitor” (TOYAMA PREFECTURAL UNIVERSITY, priority 2020, dated 2025)
